Earlier results as cited in patent publication US20240199640A1, “NEGATIVE ALLOSTERIC MODULATORS OF METABOTROPIC GLUTAMATE RECEPTOR 2” (priority 2021, published 2024).

Columns and labels:
[1] = conditioned fear stress; cited from earlier work
Helpless (H) mice = details: cited from earlier work
C57Bl6/J mice = details: cited from earlier work
rat = details: normal animals; cited from earlier work
[2] = tested on: Aβ-induced neurodegeneration; details: cited from earlier work
[3] = tested on: central mGlu2 and mGlu3 receptors; details: in vivo; cited from earlier work
mice = details: treated mice; cited from earlier work
mouse = details: normal animals; cited from earlier work
[4] = treatment for 7 days; cited from earlier work
[5] = tested on: social isolation-reared mice; details: cited from earlier work
[6] = tested on: olfactory bulbectomized rats; details: repeated administration for 14 days; cited from earlier work

SMILES | freezing behavior [1] | activity in the tail suspension test (Helpless (H) mice; Helpless (H) mice) | antidepressant effect in helpless mice (Helpless (H) mice; acute administration) | immobility time in the FST (C57Bl6/J mice) | Antidepressant-like effects in rat forced swim test (rat) | Aβ-induced neurodegeneration [2] | hypolocomotor effect of mGlu2/3 agonist (LY379268) [3] | marble-burying behavior (mice) | Antidepressant-like effects in mouse tail-suspension test (mouse) | number of escape failures [4] | increased immobility in the FST [5] | spontaneous locomotor activity (mice) | hyperactivity in the open field test [6] | learning deficit in the passive avoidance test [6]
CN1C(=O)CN=C(c2ccccc2)c2cc(Cl)ccc21 [diazepam] | significantly decreased | – | – | – | – | – | – | – | – | – | – | – | – | –
N[C@](CC1c2ccccc2Oc2ccccc21)(C(=O)O)[C@H]1C[C@@H]1C(=O)O [LY341495] | – | active | potent antidepressant effect | dose-dependently reduced | Antidepressant-like effects | prevented | achieved the same result | significantly reduce | Antidepressant-like effects | – | – | – | – | –
N[C@]1(C(=O)O)[C@H]2[C@@H](C[C@H]1OCc1ccc(Cl)c(Cl)c1)[C@]2(F)C(=O)O [MGS0039] | significantly decreased | – | – | – | Antidepressant-like effects | – | – | reduced | Antidepressant-like effects | significantly reduced | reversed | no significant change | attenuated | attenuated
